Source: patent US20130324564A1, “POLYMORPHS OF (S)-1-(4,4,6,6,6-PENTADEUTERO-5-HYDROXYHEXYL)-3-7-DIMETHYL-1H-PURINE-2,6(3H,7H)-DIONE” (CONCERT PHARMACEUTICALS, INC., priority 2010, published 2013)

Tests used:
[1] = Solid-form stability of Form 1 under humidity, pressure and grinding stress; format: physicochemical
[2] = Relative thermodynamic stability and interconversion of polymorphs; format: physicochemical

form stability / form change ([1]; exposed to 0.35 GPa pressure) | form stability / form change ([1]; exposed to 97% relative humidity for up to 12 days) | form stability / form change ([1]; ground at ambient temperature (30Hz for 2hrs)) | form stability / form change ([1]; ground at −196° C. (25Hz for 0.5hrs)) | form conversion ([2]; upon air drying, storage and/or slurrying at room temperature) | Structure (SMILES) | relative thermodynamic stability ([2]; compared with the other polymorphs)
stable and did not undergo a form change | stable and did not undergo a form change | stable and did not undergo a form change | stable and did not undergo a form change |  | [2H]C([2H])([2H])[C@H](O)C([2H])([2H])CCCn1c(=O)c2c(ncn2C)n(C)c1=O [Form 1, (S)-1-(4,4,6,6,6-pentadeutero-5-hydroxyhexyl)-3,7-dimethyl-1H-purine-2,6(3H,7H)-dione] | more thermodynamically stable than any of Forms 2, 3 and 4
 |  |  |  | convert to Form 1 | [2H]C([2H])([2H])[C@H](O)C([2H])([2H])CCCn1c(=O)c2c(ncn2C)n(C)c1=O [Form 2, (S)-1-(4,4,6,6,6-pentadeutero-5-hydroxyhexyl)-3,7-dimethyl-1H-purine-2,6(3H,7H)-dione] | 
